Target: T1, human full length HSD11β1 (Homo sapiens, UniProt P28845)
T1 construct: transient expression of human full length HSD11β1 expression vector; host or cells: CHO cells, transient transfection
Assay: In Vitro HSD11β1 Inhibition Assay
Assay type: cell-based
Conditions: CHO cells transiently expressing human HSD11β1; 200 nM cortisone+500 uM NADPH overnight; cortisone to cortisol by LC/MS-MS; read-out: 11βHSD1 (IC50)
Procedure, shortened: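 Whole-cell assay in CHO cells transiently transfected with full-length human HSD11β1, re-seeded 24 h after transfection. Cells incubated overnight with 200 nM cortisone plus 500 uM NADPH, with or without inhibitor. Cortisone-to-cortisol conversion measured by LC/MS-MS; IC50 (nM) from an 8-point log concentration-inhibition curve.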

T1 sequence (P28845 whole entry): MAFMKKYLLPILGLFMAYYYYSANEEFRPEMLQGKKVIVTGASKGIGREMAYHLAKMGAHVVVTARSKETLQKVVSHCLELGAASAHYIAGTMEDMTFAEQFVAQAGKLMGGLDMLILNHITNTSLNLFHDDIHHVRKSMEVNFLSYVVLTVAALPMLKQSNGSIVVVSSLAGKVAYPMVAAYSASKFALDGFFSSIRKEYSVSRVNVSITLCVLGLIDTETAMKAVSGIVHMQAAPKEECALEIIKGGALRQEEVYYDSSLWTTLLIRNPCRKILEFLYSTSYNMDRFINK

Row | Compound | IC50 [nM]
1 | CC(CC(=O)N1C2CC3CC(C2)CC1C3)c1nc2c(Cl)cccc2s1 (centres unmarked) [Compound 119, 1-(2-azatricyclo[3.3.1.1^3,7]dec-2-yl)-3-(4-chloro-1,3-benzothiazol-2-yl)butan-1-one] | < 100
2 | CC(CC(=O)N1C2CC3CC1CC(O)(C3)C2)c1nc2c(Cl)cccc2s1 (centres unmarked) [Compound 120, 3-(4-chloro-1,3-benzothiazol-2-yl)-1-(5-hydroxy-2-azatricyclo[3.3.1.1^3,7]dec-2-yl)butan-1-one] | > 250
3 | O=C(CC(c1ccccc1)n1nnc2ccccc21)N1C2CC3CC1CC(O)(C3)C2 (centres unmarked) [Compound 121, 3-(1H-benzotriazol-1-yl)-1-(5-hydroxy-2-azatricyclo[3.3.1.1^3,7]dec-2-yl)-3-phenylpropan-1-one] | > 250
4 | O=C(O)C1C2CC3CC(C2)N(C(=O)CC(c2cccs2)c2c[nH]c4cccc(F)c24)C1C3 (centres unmarked) [Compound 122, 2-[3-(4-fluoro-1H-indol-3-yl)-3-(thiophen-2-yl)propanoyl]-2-azatricyclo[3.3.1.1^3,7]decane-4-carboxylic acid] | > 250
5 | CC(CC(=O)N1C2CC3CC1CC(C#N)(C3)C2)c1nc2c(Cl)cccc2s1 (centres unmarked) [Compound 123, 2-[3-(4-chloro-1,3-benzothiazol-2-yl)butanoyl]-2-azatricyclo[3.3.1.1^3,7]decane-5-carbonitrile] | > 250
6 | O=C(CCc1c[nH]c2cccc(C3CC3)c12)N1C2CC3CC1CC(O)(C3)C2 [Compound 126, 3-(4-cyclopropyl-1H-indol-3-yl)-1-(5-hydroxy-2-azatricyclo[3.3.1.1^3,7]dec-2-yl)propan-1-one] | < 100
7 | O=C(CC(c1cccs1)c1c[nH]c2cccc(F)c12)N1C2CC3CC1CC(O)(C3)C2 (centres unmarked) [Compound 127, 3-(4-fluoro-1H-indol-3-yl)-1-(5-hydroxy-2-azatricyclo[3.3.1.1^3,7]dec-2-yl)-3-(thiophen-2-yl)propan-1-one] | < 100
8 | CCCc1cccc2[nH]cc(CCC(=O)N3C4CC5CC3CC(O)(C5)C4)c12 [Compound 128, 1-(5-hydroxy-2-azatricyclo[3.3.1.1^3,7]dec-2-yl)-3-(4-propyl-1H-indol-3-yl)propan-1-one] | > 250
9 | Cc1cccc2c1nnn2C(CC(=O)N1C2CC3CC1CC(O)(C3)C2)C(C)C (centres unmarked) [Compound 131, 1-(5-hydroxy-2-azatricyclo[3.3.1.1^3,7]dec-2-yl)-4-methyl-3-(4-methyl-1H-benzotriazol-1-yl)pentan-1-one] | > 250
10 | CC(CC(=O)N1C2CC3CC1CC(O)(C3)C2)c1c[nH]c2nccc(C3CC3)c12 (centres unmarked) [Compound 132, 3-(4-cyclopropyl-1H-pyrrolo[2,3-b]pyridin-3-yl)-1-(5-hydroxy-2-azatricyclo[3.3.1.1^3,7]dec-2-yl)butan-1-one] | < 100
11 | CC(CC(=O)N1C2CC3CC1CC(O)(C3)C2)c1c[nH]c2cc(Cl)c(F)cc12 (centres unmarked) [Compound 133, 3-(6-chloro-5-fluoro-1H-indol-3-yl)-1-(5-hydroxy-2-azatricyclo[3.3.1.1^3,7]dec-2-yl)butan-1-one] | 100 to 150
12 | O=C(CC(c1ccccc1)c1c[nH]c2cc(Cl)ccc12)N1C2CC3CC1CC(C(=O)O)(C3)C2 (centres unmarked) [Compound 134, 2-[3-(6-chloro-1H-indol-3-yl)-3-phenylpropanoyl]-2-azatricyclo[3.3.1.1^3,7]decane-5-carboxylic acid] | 150 to 200
13 | CC(CC(=O)N1C2CC3CC1CC(O)(C3)C2)c1c[nH]c2ncc(Cl)cc12 (centres unmarked) [Compound 135, 3-(5-chloro-1H-pyrrolo[2,3-b]pyridin-3-yl)-1-(5-hydroxy-2-azatricyclo[3.3.1.1^3,7]dec-2-yl)butan-1-one] | > 250
14 | CC(CC(=O)N1C2CC3CC1CC(C#N)(C3)C2)c1c[nH]c2nccc(C3CC3)c12 (centres unmarked) [Compound 136, 2-[3-(4-cyclopropyl-1H-pyrrolo[2,3-b]pyridin-3-yl)butanoyl]-2-azatricyclo[3.3.1.1^3,7]decane-5-carbonitrile] | < 100
15 | CC(CC(=O)N1C2CC3CC1CC(C#N)(C3)C2)c1c[nH]c2ncc(Cl)cc12 (centres unmarked) [Compound 137, 2-[3-(6-chloro-1H-pyrrolo[2,3-b]pyridin-3-yl)butanoyl]-2-azatricyclo[3.3.1.1^3,7′]decane-5-carbonitrile] | > 250
16 | CC(CC(=O)N1C2CC3CC1CC(O)(C3)C2)c1c[nH]c2cc(Cl)c(C3CC3)cc12 (centres unmarked) [Compound 138, 3-(6-chloro-5-cyclopropyl-1H-indol-3-yl)-1-(5-hydroxy-2-azatricyclo[3.3.1.1^3,7]dec-2-yl)butan-1-one] | 100 to 150
17 | Cc1c(F)ccc2[nH]cc(C(C)CC(=O)N3C4CC5CC3CC(O)(C5)C4)c12 (centres unmarked) [Compound 139, 3-(5-fluoro-4-methyl-1H-indol-3-yl)-1-(5-hydroxy-2-azatricyclo[3.3.1.1^3,7]dec-2-yl)butan-1-one] | < 100
18 | CC(CC(=O)N1C2CC3CC1CC(C(=O)O)(C3)C2)c1c[nH]c2ccc(-c3ccccc3)cc12 (centres unmarked) [Compound 142, 2-[3-(5-phenyl-1H-indol-3-yl)butanoyl]-2-azatricyclo[3.3.1.1^3,7]decane-5-carboxylic acid] | > 250

Row | Compound | IC50 [nM]
19 | CC(CC(=O)N1C2CC3CC1CC(CC(=O)O)(C3)C2)c1c[nH]c2cccc(Cl)c12 (centres unmarked) [Compound 145, {2-[3-(4-chloro-1H-indol-3-yl)butanoyl]-2-azatricyclo[3.3.1.1^3,7]dec-5-yl}acetic acid] | 100 to 150
20 | CC(CC(=O)N1C2CC3CC1CC(c1nnn[nH]1)(C3)C2)c1c[nH]c2cccc(C3CC3)c12 (centres unmarked) [Compound 149, 3-(4-cyclopropyl-1H-indol-3-yl)-1-[5 (1H-tetrazol-5-yl)-2-azatricyclo[3.3.1.1^3,7]dec-2-yl]butan-1-one] | > 250
21 | CC(CC(=O)N1C2CC3CC1CC(CC(=O)O)(C3)C2)c1c[nH]c2cccc(C3CC3)c12 (centres unmarked) [Compound 152, {2-[3-(4-cyclopropyl-1H-indol-3-yl)butanoyl]-2-azatricyclo[3.3.1.1^3,7]dec-5-yl}acetic acid] | 100 to 150
22 | CC(CC(=O)N1C2CC3CC1CC(O)(C3)C2)c1c[nH]c2cccc(-c3cccs3)c12 (centres unmarked) [Compound 153, 1-(5-hydroxy-2-azatricyclo[3.3.1.1^3,7]dec-2-yl)-3-[4-(thiophen-2-yl)-1H-indol-3-yl]butan-1-one] | < 100
23 | CC(CC(=O)N1C2CC3CC1CC(CC(=O)O)(C3)C2)c1c[nH]c2cccc(-c3cccs3)c12 (centres unmarked) [Compound 154, (2-{3-[4-(thiophen-2-yl)-1H-indol-3-yl]butanoyl}-2-azatricyclo[3.3.1.1^3,7]dec-5-yl)acetic acid] | > 250
24 | O=C(O)CC12CC3CC(C1)N(C(=O)CC(c1cccs1)c1c[nH]c4cccc(F)c14)C(C3)C2 (centres unmarked) [Compound 159, {2-[3-(4-fluoro-1H-indol-3-yl)-3-(thiophen-2-yl)propanoyl]-2-azatricyclo[3.3.1.1^7]dec-5-yl}acetic acid] | 100 to 150
25 | Cc1ccc2[nH]cc(C(C)CC(=O)N3C4CC5CC3CC(O)(C5)C4)c2c1C1CC1 (centres unmarked) [Compound 160, 3-(4-cyclopropyl-5-methyl-1H-indol-3-yl)-1-(5-hydroxy-2-azatricyclo[3.3.1.1^3,7]dec-2-yl)butan-1-one] | 100 to 150
26 | CC(CC(=O)N1C2CC3CC1CC(CC(=O)O)(C3)C2)c1c[nH]c2ccc(Cl)c(Br)c12 (centres unmarked) [Compound 162, {2-[3-(4-bromo-5-chloro-1H-indol-3-yl)butanoyl]-2-azatricyclo[3.3.1.1^3,7]dec-5-yl}acetic acid] | 150 to 200
27 | CC(CC(=O)N1C2CC3(O)CC1CC(O)(C2)C3)c1c[nH]c2ccc(Cl)c(C3CC3)c12 (centres unmarked) [Compound 163, 3-(5-chloro-4-cyclopropyl-1H-indol-3-yl)-1-(5,7-dihydroxy-2-azatricyclo[3.3.1.1^3,7]dec-2-yl)butan-1-one] | > 250
28 | Cc1ccc2[nH]cc(C(C)CC(=O)N3C4CC5CC3CC(O)(C5)C4)c2c1C (centres unmarked) [Compound 164, 3-(4,5-dimethyl-1H-indol-3-yl)-1-(5-hydroxy-2-azatricyclo[3.3.1.1^3,7]dec-2-yl)butan-1-one] | 100 to 150
29 | COc1ccc2[nH]cc(C(C)CC(=O)N3C4CC5CC3CC(O)(C5)C4)c2c1C (centres unmarked) [Compound 165, 1-(5-hydroxy-2-azatricyclo[3.3.1.1^3,7]dec-2-yl)-3-(5-methoxy-4-methyl-1H-indol-3-yl)butan-1-one] | > 250
30 | Cc1ccc2[nH]cc(C(C)CC(=O)N3C4CC5CC3CC(O)(C5)C4)c2c1Cl (centres unmarked) [Compound 166, 3-(4-chloro-5-methyl-1H-indol-3-yl)-1-(5-hydroxy-2-azatricyclo[3.3.1.1^3,7]dec-2-yl)butan-1-one] | < 100
31 | CC(CC(=O)N1C2CC3CC1CC(C(C)C(=O)O)(C3)C2)c1c[nH]c2cccc(C3CC3)c12 (centres unmarked) [Compound 167, 2-{2-[3-(4-cyclopropyl-1H-indol-3-yl)butanoyl]-2-azatricyclo[3.3.1.1^3,7]dec-5-yl}propanoic acid] | 200 to 250
32 | CC(CC(=O)N1C2CC3CC1CC(O)(C3)C2)c1c[nH]c2ccc(Cl)c(Cl)c12 (centres unmarked) [Compound 168, 3-(4,5-dichloro-1H-indol-3-yl)-1-(5-hydroxy-2-azatricyclo[3.3.1.1^3,7]dec-2-yl)butan-1-one] | < 100
33 | COc1ccc2[nH]cc(C(C)CC(=O)N3C4CC5CC3CC(O)(C5)C4)c2c1C1CC1 (centres unmarked) [Compound 171, 3-(4-cyclopropyl-5-methoxy-1H-indol-3-yl)-1-(5-hydroxy-2-azatricyclo[3.3.1.1^3,7]dec-2-yl)butan-1-one] | 200 to 250
34 | Cc1ccc2[nH]cc(C(C)CC(=O)N3C4CC5CC3CC(F)(C5)C4)c2c1C (centres unmarked) [Compound 176, 3-(4,5-dimethyl-1H-indol-3-yl)-1-(5-fluoro-2-azatricyclo[3.3.1.1^3,7]dec-2-yl)butan-1-one] | > 250
35 | CC(CC(=O)N1C2CC3CC1CC(O)(C3)C2)c1c[nH]c2cccc(N3CCCCC3)c12 (centres unmarked) [Compound 180, 1-(5-hydroxy-2-azatricyclo[3.3.1.1^3,7]dec-2-yl)-3-[4-(piperidin-1-yl)-1H-indol-3-yl]butan-1-one] | > 250
